Patent US7189717B2, “Medicinal compositions promoting bowel movement” (Eisai Co., Ltd., priority 2000, dated 2007)
Read-outs that look alike come from different tables or passages of the source.

Experiments:
[1] = test system: rat distal colon longitudinal muscles; details: cited from earlier work; for Relaxation of Carbachol-contracted muscles: agonist added at 0.1 to 30 μM
[2] = test system: guinea pig distal colon longitudinal muscles; details: cited from earlier work; for pA2 value of the antagonistic action on the relaxing action of NECA: electrical stimulation
[3] = test system: guinea pig distal colon longitudinal muscles; details: KCl + tetrodotoxin, cited from earlier work
[4] = test system: guinea pig colon longitudinal muscles; details: 100 nM; cited from earlier work
SD IGS rats [5] = assay: Defecation-promoting action in rat, number of fecal pellets (Test Example 2); assay type: in vivo; details: for The number of fecal pellets/3 rats: Test Example 2
Experimental: (§1) SD IGS rats (6-weeks-old, from Charles River) were placed in cages (3 animals/cage) and preliminarily allowed food and water ad libitum and raised for 1 week. On the day of the experiment, their weight was measured, a water-absorbing sheet was placed below each cage, and the animals were fasted but allowed water ad libitum throughout the experiment. Three hours after fasting was initiated, the fecal pellets were recovered from each cage and observed for abnormality before the experiment, and then the compound suspended or dissolved in 0.5% (W/V) methyl cellulose (MC) was orally administered into each rat in a dose of 5 ml/kg. On one hand, 0.5% (W/V) MC only was orally given to the control group. After administering the compound, the rats were returned to the cage provided with a new water-absorbing sheet of known weight, and 180 minutes after the administration, the fecal pellets on the water-absorbing sheet were recovered from each cage, and the external appearance was observed, and the number of fecal pellets was counted. The number of fecal pellets is expressed per each cage (Table 4). After the fecal pellets were recovered, the water-absorbing sheet was weighed, and the weight determined by subtracting the initial weight of the water-adsorbing sheet from the weight after the experiment was regarded as the volume of urine and expressed as the volume of urine per 100 g of the body weight (Table 4).

[6] = Urine volume in rat (Test Example 2); assay type: in vivo; details: rats, oral, Table 4
Experimental: as §1, with “The number of fecal pellets is expressed per each cage (Table 4).” left out

SD IGS rats [7] = assay: Evaluation of defecation-promoting action (Table 10); assay type: in vivo, rat; details: 180 minutes, n = 6 cages/group
Experimental: That is, SD IGS rats (6-to 7-weeks-old, from Charles River) were placed in cages (3 animals/cage) and preliminarily allowed food and water ad libitum and raised for 1 week. On the day of the experiment, their weight was measured, a water-absorbing sheet was placed below each cage, and the animals were fasted but allowed water ad libitum throughout the experiment. Thee hours after fasting was initiated, the fecal pellets were recovered from each cage and observed for abnormality before the experiment, and then the compound suspended in 0.5% (w/v) methyl cellulose (MC) was orally administered in a dose of 5 ml/kg. On one hand, 0.5% (w/v) MC only was orally given to the control group. After administration of the compound, the rats were returned to the cage provided with a new water-absorbing sheet, and 180 minutes after the administration, the fecal pellets on the water-absorbing sheet were recovered from each cage, and the external appearance was observed, and the number of fecal pellets was counted. The number of fecal pellets is expressed per each cage.

SD IGS rats [8] = assay: Contribution of inhibition of adenosine A2b receptor to defecation-promoting action (Test Example 3); assay type: in vivo, rat
Experimental: as §1, with “The number of fecal pellets is expressed per each cage (Table 4).” left out, “4). […]” for “4).”

**Q.** With `CCNC(=O)[C@H]1O[C@@H](n2cnc3c(N)nc(NCCc4ccc(CCC(=O)O)cc4)nc32)[C@H](O)[C@@H]1O` [CGS21680, 2-p-[2-carboxyethyl]phenetylamino-5′-N-ethylarboxyamide adenosine] as the compound, how does the “Antagonism of the relaxing action of NECA and CPA” value ([1]; 10 μM) read?
**A.** Its value is “not antagonized”.

**Q.** What about the “Relaxation of muscles contracted by electrical stimulation” value [2] of the same compound?
**A.** The value was “very weak”.

**Q.** What about the Relaxing action ([3]; 1 μM) of the same compound?
**A.** Its Relaxing action is “did not act”.

**Q.** What does the source list for `OC[C@H]1O[C@@H](n2cnc3c(NC4CCCC4)ncnc32)[C@H](O)[C@@H]1O` [CPA]?
**A.** Relaxation of Carbachol-contracted muscles [1]: relaxation was observed; Relaxing action on contraction stimulated by acetylcholine [4]: did not exhibit a relaxing action; Relaxation of muscles contracted by electrical stimulation [2]: relaxation was observed

**Q.** Which results are given for `Nc1ncc(-c2ccncc2)c(-c2ccco2)n1` [Compound I, 2-Amino-4-(2-furyl)-5-(4-pyridyl)pyrimidine]?
**A.** Defecation-promoting action (in words) (SD IGS rats [5]; rats, oral, Table 4): evidently higher defecation-promoting action; Diuretic action (in words) [6]: weaker diuretic action than the A1-selective antagonist KW3902

**Q.** With `CCCn1c(=O)c2[nH]c(C3CCCC3)nc2n(CCC)c1=O` [DPCPX] as the compound, how does the “Antagonism of the relaxing action of NECA and CPA” value ([1]; 1 μM) read?
**A.** Its value is “antagonized”.

**Q.** What about the “pA2 value of the antagonistic action on the relaxing action of NECA” value [2] of the same compound?
**A.** Its value is 8.8.

**Q.** What about the “Antagonistic action on the relaxing action” value ([3]; 1 nM) of the same compound?
**A.** The value was “did not show an antagonistic action”.

**Q.** What about the “Antagonistic action on the relaxing action of NECA and CPA” value ([3]; 10 nM) of the same compound?
**A.** Its value is “inhibited the relaxing action of NECA and CPA”.

**Q.** What about the “pA2 value against CPA” value [3] of the same compound?
**A.** The value was 7.0.

**Q.** And the “pA2 value against NECA” value [3]?
**A.** Its value is 6.6.

**Q.** Which “The number of fecal pellets/3 rats” value (SD IGS rats [7]; 3 mg/kg oral) does the source give for `Nc1nc(N)c(-c2ccncc2)c(-c2cccc(F)c2)n1` [Example 1, 6-(3-Flurophenyl)-5-(4-pyridyl)-2,4-pyrimidine diamine] here?
**A.** The value was 14.83 ± 1.82 fecal pellets/3 rats.

**Q.** What about the “The number of fecal pellets/3 rats” value (SD IGS rats [7]; 10 mg/kg oral) of the same compound?
**A.** Its value is 23.17 ± 2.94 fecal pellets/3 rats.

**Q.** With `Cn1c(=O)c2[nH]c(-c3ccccc3)nc2n(C)c1=O` [Example 8-PT, 8-phenyltheophylline] as the compound, how does the “pA2 value of the antagonistic action on the relaxing action of NECA” value [2] read?
**A.** The value was 6.5.

**Q.** What about the “pA2 value upon inhibition of the action of NECA” value ([3]; 10 μM) of the same compound?
**A.** Its value is 5.7.

**Q.** For `CCCn1c(=O)c2[nH]c(C34CC5CC(CC3C5)C4)nc2n(CCC)c1=O` [KW3902], which “The number of fecal pellets/3 rats” value (SD IGS rats [5]; 0.3 mg/kg oral, 180 minutes after administration) is on record?
**A.** Its value is 10.67 ± 2.08 fecal pellets/3 rats.

**Q.** And the “The number of fecal pellets/3 rats” value (SD IGS rats [5]; 1 mg/kg oral, 180 minutes)?
**A.** The value was 14.50 ± 1.18 fecal pellets/3 rats.

**Q.** And the “The number of fecal pellets/3 rats” value (SD IGS rats [5]; 3 mg/kg oral, 180 minutes)?
**A.** The value was 12.83 ± 1.66 fecal pellets/3 rats.

**Q.** What about the “Diuretic action (in words)” value [6] of the same compound?
**A.** The value was “stronger diuretic action than Compound I”.

**Q.** And the “The number of fecal pellets/3 rats” value (SD IGS rats [8]; KW3902 1 mg/kg together with KW6002 1 mg/kg, 180 minutes)?
**A.** Its value is 18.25 ± 1.49 fecal pellets/3 rats.

**Q.** What about the “The number of fecal pellets/3 rats” value (SD IGS rats [8]; KW3902 1 mg/kg without KW6002, 180 minutes) of the same compound?
**A.** The value was 9.00 ± 1.08 fecal pellets/3 rats.

**Q.** What does the source list for `CCNC(=O)[C@H]1O[C@@H](n2cnc3c(N)ncnc32)[C@H](O)[C@@H]1O` [NECA, 5′-N-ethylcarboxyamide adenosine]?
**A.** Relaxation of Carbachol-contracted muscles [1]: relaxation was observed; Relaxing action on contraction stimulated by acetylcholine [4]: did not exhibit a relaxing action; Relaxation of muscles contracted by electrical stimulation [2]: relaxation was observed
